Source: US20210387941A1, “Diphenyl-like Compound, Intermediate Thereof, Preparation Method Therefor, Pharmaceutical Composition Thereof And Uses Thereof” (SHANGHAI MAXINOVEL PHARMACEUTICALS CO., LTD., priority 2018, published 2021)

These molecules were tested against T1, PD-1/PD-L1 (Homo sapiens, UniProt Q9NZQ7) (assay: Homogeneous Time-Resolved Fluorescence (HTRF) binding test). Conditions: CisBio kit #64CUS000C-1, read-out: IC50 values of compounds binding to PD-1/PD-L1.
T1 construct: tag1 or tag2 (identity not disclosed); purchased CisBio 64CUS000C-1
Description: The binding ability of the compounds of the present disclosure to PD-1/PD-L1 was detected using Homogeneous Time-Resolved Fluorescence (HTRF) binding test.
The purchased kit (CisBio, #64CUS000C-1) contained the reagents needed for experiments, such as PD-1, PD-L1, anti-tag1-Eu, Anti-tag2-XL665, Dilute Buffer and Detection Buffer.
1. The compound was prepared with 100% DMSO to 10 concentrations with a concentration gradient of 3 times.
2. A solution of the compound in DMSO was added into Dilute Buffer, mixed uniformly, and then transferred into 96-well plate.
3. PD-L1 was diluted with Dilute Buffer, and then added into the above 96-well plate.
4. PD-1 was diluted with Dilute Buffer, and then added into the above 96-well plate and incubated at room temperature for 30 minutes.
5. A part of anti-tag1-Eu and a part of Anti-tag2-XL665 were added into Detection Buffer, mixed uniformly and then transferred into the above 96-well plate.
6. The mixed solution in this 96-well plate was incubated at room temperature for 1 hour to 24 hours.
7. HTRF values were read with Envision.

T1 sequence (Q9NZQ7 19-238 limits assumed): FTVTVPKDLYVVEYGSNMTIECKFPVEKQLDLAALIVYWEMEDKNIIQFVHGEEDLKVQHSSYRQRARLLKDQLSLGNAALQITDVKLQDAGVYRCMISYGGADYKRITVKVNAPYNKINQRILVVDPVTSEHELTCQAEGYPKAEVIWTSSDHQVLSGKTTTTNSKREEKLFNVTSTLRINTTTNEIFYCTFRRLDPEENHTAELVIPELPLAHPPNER

SMILES | IC50 [nM]
Cc1c(/C=C/c2cc(CNCCO)ccc2C(F)(F)F)cccc1-c1cccc(/C=C/c2cc(CNCCO)ccc2C(F)(F)F)c1C [Compound 1, 2-[({3-[(E)-2-(3-{3-[(E)-2-(5-{[(2-hydroxyethyl)amino]methyl}-2-(trifluoromethyl)phenyl)ethenyl]-2-methylphenyl}-2-methylphenyl)ethenyl]-4-(trifluoromethyl)phenyl}methyl)amino]-1-ethanol] | 6.1
COCCOc1ccc(F)c(/C=C/c2cccc(-c3cccc(/C=C/c4cc(CN[C@@](C)(CO)C(=O)O)ccc4C(F)(F)F)c3C)c2C)c1 [Compound 8, (2S)-3-hydroxy-2-[({3-[(E)-2-[3-(3-(E)-{2-[2-fluoro-5-(2-methoxyethoxy)phenyl]ethenyl}-2-methylphenyl)-2-methylphenyl]ethenyl]-4-(trifluoromethyl)phenyl}methyl)amino]-2-methylpropanoic Acid] | 510
Cc1c(/C=C/c2cc(CNCCO)ccc2C(F)(F)F)cccc1-c1cccc(-c2cccc(CNCCO)c2)c1C [Compound 9, 2-({[(3-(E)-2-{3-[3-(3-{[(2-hydroxyethyl)amino]methyl}phenyl)-2-methylphenyl]-2-methylphenyl}ethenyl)-4-(trifluoromethyl)phenyl]methyl}amino)-1-ethanol] | 7.5
Cc1c(/C=C/c2cc(CNCCO)ccc2C(F)(F)F)cccc1-c1cccc(-c2cc(CNCCO)ccc2F)c1C [Compound 10, 2-({[(3-(E)-2-{3-[3-(5-{[(2-hydroxyethyl)amino]methyl}-2-fluoro-phenyl)-2-methylphenyl]-2-methylphenyl}ethenyl)-4-(trifluoromethyl)phenyl]methyl}amino)-1-ethanol] | 14
Cc1c(/C=C/c2cc(CN[C@@](C)(CO)C(=O)O)ccc2C(F)(F)F)cccc1-c1cccc(-c2cc(CN[C@@](C)(CO)C(=O)O)ccc2F)c1C [Compound 11, (2S)-2-[({3-[(E)-2-(3-{3-[5-({[(1S)-1-carboxyl-2-hydroxy-1-methylethyl]amino}methyl)-2-fluorophenyl]-2-methylphenyl}-2-methylphenyl)ethenyl]-4-(trifluoromethyl)phenyl}methyl)amino]-3-hydroxy-2-methylpropanoic acid] | 8.7
Cc1c(/C=C/c2cc(CNCCO)ccc2C(F)(F)F)cccc1-c1cccc(/C=C/c2cc(CNCCO)ccc2C(F)(F)F)c1CF [Compound 12, 2-[({3-[(E)-2-(3-{3-[(E)-2-(5-{[(2-hydroxyethyl)amino]methyl}-2-(trifluoromethyl)phenyl)ethenyl]-2-(fluoromethyl)phenyl}-2-methylphenyl)ethenyl]-4-(trifluoromethyl)phenyl}methyl)amino]-1-ethanol] | 4.7

Stronger by IC50, values ahead:

IC50 [nM] | SMILES
4.4 | Cc1c(/C=C/c2cc(CNCCO)ccc2C(F)(F)F)cccc1-c1cccc(/C=C/c2cc(CN[C@@](C)(CO)C(=O)O)ccc2C(F)(F)F)c1C [Compound 2, (2S)-3-hydroxy-2-[({3-[(E)-2-(3-{3-[(E)-2-(5-{[(2-hydroxyethyl)amino]methyl}-2-(trifluoromethyl)phenyl)ethenyl]-2-methylphenyl}-2-methylphenyl)ethenyl]-4-(trifluoromethyl)phenyl}methyl)amino]-2-methylpropanoic Acid]
4.3 | COCCNCc1ccc(C(F)(F)F)c(/C=C/c2cccc(-c3cccc(/C=C/c4cc(CNCCO)ccc4C(F)(F)F)c3C)c2Cl)c1 [Compound 4, 2-[({3-[(E)-2-(3-{3-[(E)-2-(5-{[(2-methoxyethyl)amino]methyl}-2-(trifluoromethyl)phenyl)ethenyl]-2-chlorophenyl}-2-methylphenyl)ethenyl]-4-(trifluoromethyl)phenyl}methyl)amino]-1-ethanol]
3.2 | Cc1c(/C=C/c2cc(CN[C@@](C)(CO)C(=O)O)ccc2C(F)(F)F)cccc1-c1cccc(/C=C/c2cc(CN[C@@](C)(CO)C(=O)O)ccc2C(F)(F)F)c1C [Compound 3, (2S)-2-[({3-[(E)-2-(3-{3-[(E)-2-[5-({[(1S)-1-carboxyl-2-hydroxy-1-methylethyl]amino}methyl)-2-(trifluoromethyl)phenyl]ethenyl]-2-methylphenyl}-2-methylphenyl)ethenyl]-4-(trifluoromethyl)phenyl}methyl)amino]-3-hydroxy-2-methylpropanoic Acid]
2.8 | Cc1c(/C=C/c2cc(CN[C@@](C)(CO)C(=O)O)ccc2C(F)(F)F)cccc1-c1cccc(/C=C/c2cc(CNCCO)ccc2C(F)(F)F)c1Cl [Compound 6, (2S)-3-hydroxy-2-[({3-[(E)-2-(3-{3-[(E)-2-(5-{[(2-hydroxyethyl)amino]methyl}-2-(trifluoromethyl)phenyl)ethenyl]-2-chlorophenyl}-2-methylphenyl)ethenyl]-4-(trifluoromethyl)phenyl}methyl)amino]-2-methylpropanoic Acid]
2.6 | Cc1c(/C=C/c2cc(CNCCO)ccc2C(F)(F)F)cccc1-c1cccc(/C=C/c2cc(CNCCO)ccc2C(F)(F)F)c1Cl [Compound 7, 2-[({3-[(E)-2-(3-{3-[(E)-2-(5-{[(2-hydroxyethyl)amino]methyl}-2-(trifluoromethyl)phenyl)ethenyl]-2-chlorophenyl}-2-methylphenyl)ethenyl]-4-(trifluoromethyl)phenyl}methyl)amino]-1-ethanol]
2.3 | COCCNCc1ccc(C(F)(F)F)c(/C=C/c2cccc(-c3cccc(/C=C/c4cc(CN[C@@](C)(CO)C(=O)O)ccc4C(F)(F)F)c3C)c2Cl)c1 [Compound 5, (2S)-3-hydroxy-2-[({3-[(E)-2-(3-{3-[(E)-2-(5-{[(2-methoxyethyl)amino]methyl}-2-(trifluoromethyl)phenyl)ethenyl]-2-chlorophenyl}-2-methylphenyl)ethenyl]-4-(trifluoromethyl)phenyl}methyl)amino]-2-methylpropanoic Acid]
